Reference: patent publication US20110059956A1, “THERAPEUTIC AGENT FOR PAIN” (ZERIA PHARMACEUTICAL CO., LTD., priority 2008, published 2011)
Counter-ions that a name gives are not always drawn. Like-named read-outs stand apart in the source and are kept apart here.

Experiments:
[1] = tested on: nociceptive pain triggered by formalin; conditions: cited from earlier work; for analgesic effect, sole use: Non-Patent Document 11
[2] = tested on: nociceptive pain caused by thermal stimulation; conditions: cited from earlier work; for generation of morphine resistance: mouse, thermal stimulation, Non-Patent Documents 5 and 6
[3] = tested on: allodynia in B16-BL6 melanoma cancer pain model; assay: cancer pain model (B16-BL6 melanoma), von Frey pain threshold, repeated administration; format: in vivo, mouse; conditions: 100 mg/kg orally once a day for eight days from day 7 after cancer transplantation; FIG. 2
Experimental: From day 7 after cancer transplantation, compound (A1) or L-365,260 (CCK2 receptor antagonist) (100 mg/kg) was orally administered once a day for eight days repeatedly, and the change in pain threshold was monitored. […] On day 7 after cancer transplantation, allodynia occurred, and a considerable drop in pain threshold occurred on day 14 after cancer transplantation.

neuropathic pain = conditions: cited from earlier work
[4] = tested on: nociceptive pain caused by thermal stimulation; conditions: Non-Patent Document 7, cited from earlier work
[5] = tested on: allodynia in B16-BL6 melanoma cancer pain model; assay: cancer pain model (B16-BL6 melanoma transplanted into paw), von Frey pain threshold, single administration; format: in vivo, mouse; conditions: peroral single administration 100 mg/kg on day 14 after cancer transplantation; FIG. 1
Text: Then, the change in pain threshold was monitored. Compound (A1) was suspended in 0.5% CMC-Na solution before administration.

thermal hyperalgesia = conditions: Non-Patent Document 12; cited from earlier work
pancreatic cancer = conditions: Non-Patent Document 15, cited from earlier work
cancer pain = conditions: clinical, combination with morphine; Non-Patent Document 10; cited from earlier work

## C[C@](Cc1c[nH]c2ccccc12)(NC(=O)OC1[C@H]2C[C@@H]3C[C@@H](C[C@H]1C3)C2)C(=O)NC[C@H](NC(=O)CCC(=O)O)c1ccccc1 (stereo partly drawn) [CI-988]
[1]; combination with morphine, Non-Patent Document 8
  analgesic effect of morphine on nociceptive pain: potentiates the analgesic effect of morphine
[2]
  generation of morphine resistance: suppress generation of morphine resistance

## Cc1cccc(NC(=O)N[C@@H]2N=C(c3ccccc3)c3ccccc3N(C)C2=O)c1 [L-365,260]
[3]
  change in pain threshold / improvement of allodynia: no effect on improvement of allodynia was observed
Neuropathic pain; combination with morphine, Non-Patent Document 9
  analgesic effect of morphine on allodynia: potentiates the analgesic effect of morphine
Neuropathic pain; rat neuropathic pain model, Non-Patent Document 4
  generation of morphine resistance: suppress generation of morphine resistance
Neuropathic pain; single use, Non-Patent Document 9
  analgesic effect, single use: exhibits no analgesic effect
[1]
  analgesic effect, sole use: exhibits the analgesic effect
[4]; combination with morphine
  analgesic effect of morphine on nociceptive pain: potentiates the analgesic effect of morphine
[4]; single use
  analgesic effect, single use: exhibits no analgesic effect
[5]
  change in pain threshold / improvement of allodynia: no effect on improvement of allodynia
[2]
  generation of morphine resistance: suppress generation of morphine resistance
[2]; single use, Non-Patent Document 13
  analgesic effect, single use: exhibits no analgesic effect

## Cc1cccc(NC(=O)N[C@@H]2N=C(c3ccccc3)c3ccccc3N(CC(=O)c3ccccc3C)C2=O)c1 [YM022]
Thermal hyperalgesia
  analgesic effect, sole use, on thermal hyperalgesia: an analgesic effect

## Nc1ccn([C@@H]2O[C@H](CO)[C@@H](O)C2(F)F)c(=O)n1 [gemcitabine hydrochloride]
Pancreatic cancer; pancreatic cancer patients
  pain relief effect: excellent pain relief effect
Pancreatic cancer; pancreatic cancer
  tumor regression effect: comparatively weak tumor regression effect

## CCCN(CCC)C(=O)C(CCC(=O)O)NC(=O)c1ccccc1 (stereo not drawn) [proglumide]
[1]
  analgesic effect, sole use: exhibits the analgesic effect
Cancer pain
  analgesic effect of morphine on cancer pain: potentiates the analgesic effect of morphine
[5]
  change in pain threshold / improvement of allodynia: no effect on improvement of allodynia
